Bounds are passed on as bounds.

The target of the assay is HCoV-229E 3CL protease (Human coronavirus 229E, UniProt P0C6U2). Put plainly: FRET based protease assay, HCoV-229E 3CL. In kind it is biochemical. The conditions noted are these: 229E IC50, 6 nM H229E-CoV Chis-3CLpro, 6 μM peptide 1 substrate, 25° C., 1.5 hrs, pH 7.5.
HCoV-229E 3CL protease, sequence (P0C6U2 2966-3267): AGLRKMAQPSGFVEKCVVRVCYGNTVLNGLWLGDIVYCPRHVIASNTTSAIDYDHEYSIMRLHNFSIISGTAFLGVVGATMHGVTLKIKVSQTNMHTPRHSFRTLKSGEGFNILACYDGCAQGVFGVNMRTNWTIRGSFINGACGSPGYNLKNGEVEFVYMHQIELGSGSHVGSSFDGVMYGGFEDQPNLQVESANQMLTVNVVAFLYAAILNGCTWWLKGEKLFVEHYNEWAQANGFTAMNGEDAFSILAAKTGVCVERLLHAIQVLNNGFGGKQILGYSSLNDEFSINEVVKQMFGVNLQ
A word on the IC50: it is the concentration at which inhibition is half-maximal. The low end stands for inhibition by little substance, the high end for a need for much substance. Molecule `CC1(C)[C@@H]2[C@H]3C(=O)N[C@H](C#N)C[C@@H]4C(=O)NC[C@@H]4CCCC[C@H](NC(=O)c4ccc(Cl)c(Cl)c4)C(=O)N3C[C@@H]21` [Example 120] had a concentration for half-maximal inhibition (IC50) of under 100 nM.
As to `Cc1cc(C(=O)N[C@H]2CCCC[C@H]3CNC(=O)[C@H]3C[C@@H](C#N)NC(=O)[C@@H]3[C@@H]4[C@H](CN3C2=O)C4(C)C)on1` [Example 109], the IC50 was under 100 nM.
With `CC1(C)[C@@H]2[C@H]3C(=O)N[C@H](C#N)C[C@H]4C(=O)NC[C@@H]4CCCCC(=O)N3C[C@@H]21` [Example 25], the IC50 was 100 to 1000 nM.
For `CC(C)C[C@@H]1NC(=O)[C@@H](C2CCCC2)CCC[C@H]2CNC(=O)[C@H]2C[C@@H](C=O)NC1=O` [Example 13] the value was 100 to 1000 nM; for `CC1(C)[C@@H]2[C@H]3C(=O)N[C@H](C#N)C[C@@H]4C(=O)NCC[C@@H]4CCCC[C@H](NC(=O)C45CC(C(F)(F)F)(C4)C5)C(=O)N3C[C@@H]21` [Example 135], 100 to 1000 nM; for `CCC(C)(C)[C@@H]1NC(=O)[C@@H](NC(=O)OC(C)(C)C)CCCC[C@H]2CNC(=O)[C@H]2C[C@@H](C#N)NC1=O` [Example 145], 1000 to 20000 nM.
For `CC(C)(C)OC(=O)N[C@H]1CCCC[C@H]2CNC(=O)[C@H]2C[C@@H](C#N)NC(=O)[C@H](CC2CCCC2)NC1=O` [Example 137], the IC50 is under 100 nM.
As for `CC1(C)[C@@H]2[C@H]3C(=O)N[C@H](C#N)C[C@@H]4C(=O)NC[C@@H]4CCCC[C@H](NC(=O)C4CCC(F)(F)CC4)C(=O)N3C[C@@H]21` [Example 68], the figure is under 100 nM; as for `CC1(C(=O)N[C@H]2CCCC[C@H]3CNC(=O)[C@H]3C[C@@H](C#N)NC(=O)[C@@H]3[C@@H]4[C@H](CN3C2=O)C4(C)C)COC1` [Example 123], under 100 nM.
In the case of `CC(C)C[C@@H]1NC(=O)CCCCCC[C@@H]2CNC(=O)[C@H]2C[C@@H](C=O)NC1=O` [Example 47], the IC50 was in the range of 100 to 1000 nM.
In the case of `CC(C)C[C@@H]1NC(=O)[C@@H](Cc2ccccc2)CCC[C@H]2CNC(=O)[C@@H]2C[C@@H](C=O)NC1=O` [Example 17], the IC50 lay within 100 to 1000 nM.
For `CC(C)C[C@@H]1NC(=O)[C@@H](Cc2ccccc2)CCCCC[C@H]2CNC(=O)[C@H]2C[C@@H](C#N)NC1=O` [Example 50] the value was 1000 to 20000 nM; for `CC(C)(C)OC(=O)N[C@H]1CC/C=C\[C@H]2CCNC(=O)[C@H]2C[C@@H](C#N)NC(=O)[C@@H]2[C@@H]3[C@H](CN2C1=O)C3(C)C` [Example 114], under 100 nM.
For `CC(C)(C)OC(=O)N[C@H]1CC/C=C/[C@H]2CCNC(=O)[C@H]2C[C@@H](C#N)NC(=O)[C@@H]2[C@H]3CCC[C@H]3CN2C1=O` [Example 99] the value was 1000 to 20000 nM; for `CC(C)C[C@@H]1NC(=O)[C@@H](Cc2ccccc2)CCCCC[C@@H]2CNC(=O)[C@@H]2C[C@@H](C#N)NC1=O` [Example 49], over 20000 nM.
The molecule `N#C[C@@H]1C[C@@H]2C(=O)NC[C@@H]2CCCC[C@H](NC(=O)C2(C(F)(F)F)CC2)C(=O)N2CCC3(CC3)C[C@H]2C(=O)N1` [Example 151] came in with an IC50 of under 100 nM.
`CC1(C)[C@@H]2[C@H]3C(=O)N[C@H](C#N)C[C@@H]4C(=O)NC[C@@H]4CCCC[C@H](NS(=O)(=O)C4CCC4)C(=O)N3C[C@@H]21` [Example 160] had an IC50 of under 100 nM.
As for `CC(C)C[C@@H]1NC(=O)CCCCC[C@H]2CNC(=O)[C@H]2C[C@@H](C#N)NC1=O` [Example 38], the figure is 100 to 1000 nM; as for `CC(C)(C)OC(=O)N[C@@]1(C)CCCCC[C@H]2CNC(=O)[C@H]2C[C@@H](C#N)NC(=O)[C@@H]2[C@@H]3[C@H](CN2C1=O)C3(C)C` [Example 126], over 20000 nM; as for `CC1(C)[C@@H]2[C@H]3C(=O)N[C@H](C#N)C[C@@H]4C(=O)NC[C@@H]4CCCC[C@H](NC(=O)c4ccc(F)cc4F)C(=O)N3C[C@@H]21` [Example 103], under 100 nM.
Turning to `CC(C)(C)CC(=O)N[C@H]1CCCC[C@H]2CNC(=O)[C@H]2C[C@@H](C#N)NC(=O)[C@@H]2[C@@H]3[C@H](CN2C1=O)C3(C)C` [Example 73], the IC50 was under 100 nM.
The molecule `CC1(C)[C@@H]2[C@H]3C(=O)N[C@H](C#N)C[C@@H]4C(=O)NC[C@@H]4/C=C/CC[C@H](NC(=O)C(F)(F)F)C(=O)N3C[C@@H]21` [Example 108] registered a half-maximal inhibitory concentration (IC50) of under 100 nM.
As for `CC1(C)[C@@H]2[C@H]3C(=O)N[C@H](C#N)C[C@@H]4C(=O)NC[C@@H]4CCCC[C@H](NC(=O)c4ccc(F)cc4C(F)(F)F)C(=O)N3C[C@@H]21` [Example 139], the figure is under 100 nM; as for `CC(C)C[C@@H]1NC(=O)[C@H](Cc2ccccc2)CCC[C@H]2CNC(=O)[C@@H]2C[C@@H](C=O)NC1=O` [Example 21], under 100 nM.
In the case of `CC(C)C[C@@H]1NC(=O)CCCCCC[C@H]2CNC(=O)[C@@H]2C[C@@H](C=O)NC1=O` [Example 48], the IC50 is under 100 nM.
`CC(C)C[C@@H]1NC(=O)[C@@H](NC(=O)C(C)(C)C)CCCC[C@H]2CNC(=O)[C@H]2C[C@@H](C#N)NC1=O` [Example 44]: the IC50 was under 100 nM.
As for `CC(C)C[C@@H]1NC(=O)CCCC[C@H]2CNC(=O)[C@H]2C[C@@H](C=O)NC1=O` [Example 2], the figure is 1000 to 20000 nM; as for `CN1C(=O)[C@@H](NC(=O)C(C)(C)C)CCCC[C@H]2CNC(=O)[C@H]2C[C@@H](C#N)NC(=O)[C@@H]1CC(C)(C)C` [Example 78], 100 to 1000 nM.
The molecule `CC(C)(C)NC(=O)[C@H]1CCCC[C@H]2CNC(=O)[C@H]2C[C@@H](C#N)NC(=O)[C@@H]2[C@@H]3[C@H](CN2C1=O)C3(C)C` [Example 167] gave an IC50 of 100 to 1000 nM.
`CC(C)(C)OC(=O)N[C@H]1CCCC[C@H]2CNC(=O)[C@H]2C[C@@H](C#N)NC(=O)[C@@H]2CC(F)(F)CN2C1=O` [Example 131] showed an IC50 of 1000 to 20000 nM.
Molecule `CC(C)C[C@H]1C(=O)N[C@H](C#N)C[C@@H]2C(=O)NC[C@@H]2CCCC[C@H](NC(=O)C(C)(C)C)C(=O)N1C` [Example 57] had an IC50 of 100 to 1000 nM.
`CC1(C)[C@@H]2[C@H]3C(=O)N[C@H](C#N)C[C@@H]4C(=O)NC[C@@H]4CCCC[C@H](NC(=O)c4ccncn4)C(=O)N3C[C@@H]21` [Example 91]: the IC50 was under 100 nM.
For `CC(C)C[C@@H]1NC(=O)CCCCCC[C@@H]2CNCC(=O)[C@H]2C[C@@H](C=O)NC1=O` [Example 51] the value was 1000 to 20000 nM; for `N#C[C@@H]1C[C@@H]2C(=O)NC[C@@H]2CCCC[C@H](NC(=O)OC2CCCC2)C(=O)N2C[C@@H]3CCC[C@@H]3[C@H]2C(=O)N1` [Example 94], under 100 nM; for `CC1(C)[C@@H]2[C@H]3C(=O)N[C@H](C#N)C[C@@H]4C(=O)NC[C@@H]4CCCC[C@H](NC(=O)C4(C(F)(F)F)CC4)C(=O)N3C[C@@H]21` [Example 117], under 100 nM.
In turn, `CC(C)C[C@@H]1NC(=O)[C@@H](Cc2ccc(F)cc2)CCCC[C@H]2CNC(=O)[C@H]2C[C@@H](C#N)NC1=O` [Example 43] registered an IC50 of 100 to 1000 nM.
In the case of `CC(C)C[C@@H]1NC(=O)[C@@H](C2CCCC2)CCC[C@@H]2CNC(=O)[C@@H]2C[C@@H](C=O)NC1=O` [Example 14], the IC50 lay within 100 to 1000 nM.
The molecule `CC1(C)[C@@H]2[C@H]3C(=O)N[C@H](C#N)C[C@@H]4C(=O)NC[C@@H]4CCCC[C@H](NC(=O)c4cc(Cl)ccc4Cl)C(=O)N3C[C@@H]21` [Example 133] showed an IC50 of under 100 nM.
For `CC(C)(C)OC(=O)NN1CCCC[C@H]2CNC(=O)[C@H]2C[C@@H](C#N)NC(=O)[C@@H]2[C@@H]3[C@H](CN2C1=O)C3(C)C` [Example 168] the value was 1000 to 20000 nM.
As for `CC(C)C[C@@H]1NC(=O)[C@@H](CC2CCCC2)CCC[C@H]2CNC(=O)[C@@H]2C[C@@H](C=O)NC1=O` [Example 18], the figure is 100 to 1000 nM; as for `CC(C)(C)C(=O)N[C@H]1CC/C=C/[C@H]2CNC(=O)[C@H]2C[C@@H](C#N)NC(=O)[C@@H]2[C@H]3CCC[C@H]3CN2C1=O` [Example 86], under 100 nM.
The molecule `CC1(C)[C@@H]2[C@H]3C(=O)N[C@H](C#N)C[C@@H]4C(=O)NC[C@@H]4CCCC[C@H](Nc4nccc(C(F)(F)F)n4)C(=O)N3C[C@@H]21` [Example 162] yielded an IC50 of under 100 nM.
`CC1(C(=O)N[C@H]2CCCC[C@H]3CNC(=O)[C@H]3C[C@@H](C#N)NC(=O)[C@@H]3[C@@H]4[C@H](CN3C2=O)C4(C)C)CCC1` [Example 118] showed an IC50 of under 100 nM.
For `CC(C)C[C@@H]1NC(=O)CCCCC[C@H]2CNC(=O)[C@@H]2C[C@@H](C=O)NC1=O` [Example 32] the value was under 100 nM; for `CC(C)(C)OC(=O)N[C@H]1CC/C=C/[C@H]2CNC(=O)[C@H]2C[C@@H](C#N)NC(=O)[C@@H]2[C@@H]3[C@H](CN2C1=O)C3(C)C` [Example 92], under 100 nM.
The molecule `CC(C)C[C@@H]1NC(=O)CCCC[C@H]2CNC(=O)[C@@H]2C[C@@H](C#N)NC1=O` [Example 24] showed an IC50 of 100 to 1000 nM.
Consider `CC(C)C[C@@H]1NC(=O)CCCCC[C@@H]2CNC(=O)[C@H]2C[C@@H](C=O)NC1=O` [Example 31], for which the IC50 lay within 1000 to 20000 nM.
For `N#C[C@@H]1C[C@@H]2C(=O)NCC[C@@H]2CCCC[C@H](NC(=O)OC2CCCC2)C(=O)N2C[C@@H]3CCC[C@@H]3[C@H]2C(=O)N1` [Example 93] the value was under 100 nM; for `CC(C)(C)OC(=O)N[C@H]1CCCC[C@H]2CNC(=O)[C@H]2C[C@@H](C#N)NC(=O)[C@@H]2CC3(CC3)CN2C1=O` [Example 105], under 100 nM; for `CC(C)C[C@@H]1NC(=O)C(OC2CCCCC2)CCC[C@H]2CNC(=O)[C@@H]2C[C@@H](C#N)NC1=O` (stereo partly drawn) [Example 23], over 20000 nM.
On to `CC(C)C[C@@H]1NC(=O)[C@@H](Cc2ccc(F)cc2)CCCC[C@@H]2CNC(=O)[C@@H]2C[C@@H](C#N)NC1=O` [Example 42], for which the IC50 is 100 to 1000 nM.
`CC(C)C[C@@H]1NC(=O)[C@@H](Cc2ccccc2)CCC[C@H]2CNC(=O)[C@@H]2C[C@@H](C#N)NC1=O` [Example 27] yielded an IC50 of 1000 to 20000 nM.
In turn, `CC(C)(C)C(=O)N[C@H]1CCCC[C@H]2CNC(=O)[C@H]2C[C@@H](C#N)NC(=O)[C@@H]2CCCN2C1=O` [Example 74] came in with an IC50 of 1000 to 20000 nM.
`CC(C)(C)C[C@@H]1NC(=O)[C@@H](NC(=O)c2ccc(Cl)c(Cl)c2)CCCC[C@H]2CNC(=O)[C@H]2C[C@@H](C#N)NC1=O` [Example 136]: the IC50 was under 100 nM.
